{"source": "paper PMC8096218", "about": "“Global RNA profiles show target selectivity and physiological effects of peptide-delivered antisense antibiotics” (Nucleic Acids Research, 2021)", "key": {"[1]": {"system": "SL1344 ΔphoP", "assay": "MIC determination by broth microdilution", "format": "cell-based, Salmonella enterica serovar Typhimurium", "settings": "∼10^5 cfu/ml; for MIC in μM, SL1344 ΔphoP: Table 3, three biological replicates", "method": "MIC values were determined by broth microdilution according to standard protocols with a few modifications ([26]). An overnight bacterial cell culture, supplemented with the appropriate antibiotic when needed, was diluted 1:100 in fresh MHB and grown to OD600 0.5. The obtained culture was diluted to ∼10^5 cfu/ml or 10^6 cfu/ml, as indicated, in non-cation-adjusted MHB. Subsequently, 190 μl bacterial solution was dispensed into a 96-well plate (Thermo Fisher Scientific) along with 10 μl of a 20x PPNA, PNA or peptide working solution. Growth was monitored by measuring the OD at 600 nm every 20 min in a Synergy H1 plate reader (Biotek) with continuous double-orbital shaking (237 cpm) at 37°C for 24 h.\nFig. S4. Growth kinetics for MIC determ ination of 10^5 cfu/m l Salmonella wt (SL1344) and its isogenic ∆phoP m utant in the pres ence of var ying concentrations of the indicated conjugates. ( A) KFF-acpP, KFF-acpP-scram bled (scr) or KFF peptide in serial dilutions from 10 µM to 0.3 µM. ( B) RXR- acpP, RXR-acpP-scram bled (scr) or RXR peptide in seria l d ilutions f rom 10 µM to 0. 3 µM. ( C) T at-acpP, T at-acpP-scrambled (scr) or T at peptide in serial dilutions from 20 µM to 0.6 µM. D ata represent the average of three biological replicates, error bars indicate standard er ror of the m ean […]\n(1 picture or pasted object on this page, not shown here)"}, "[2]": {"system": "fabF mRNA", "assay": "RNA-seq differential expression, second gene of the dicistron", "format": "cell-based, Salmonella enterica serovar Typhimurium", "settings": "edgeR, versus water; 15 min; 5 μM KFF-/RXR-constructs, 10 μM Tat-constructs; triplicates", "method": "Bacterial overnight cultures were diluted 1:100 in fresh MHB and grown to OD600 0.5. The obtained cultures were diluted to ∼10^6 cfu/ml in non-cation-adjusted MHB. Afterward, the bacterial solution was transferred into low-binding 5 ml tubes (LABsolute) along with the 20× PNA, peptide or PPNA solution. The final concentrations were 5 μM for KFF- and RXR-PNAs, and 10 μM for Tat-PNAs. Equimolar concentrations were used for the respective peptide control conditions. As a negative control, cells were treated with the respective volume of sterile nuclease-free water, which was used as solvent for the test compounds. […]\nDNase treatment, cDNA library preparation and sequencing was conducted at Vertis (Munich, Germany). […] The cDNA was purified using the Agencourt AMPure XP kit (Beckman Coulter Genomics) and was analyzed by capillary electrophoresis. […] The cDNA pool was sequenced on an Illumina NextSeq 500 system using 75 bp read length.\nReads from the RNA-Seq experiments were trimmed, filtered and mapped against the S. enterica subsp. enterica serovar Typhimurium SL1344 reference genome and the three plasmids pSLT_SL1344, pCol1B9_SL1344 (other name is p2), and pRSF1010_SL1344 ([19]). […]\nAll downstream analysis was performed using packages from the R/Bioconductor project. The raw read counts were imported and analyzed with edgeR (v3.30.0). […]"}}, "note": "Values joined by “and” are separate entries in the source; they are usually repeats but may differ in a detail not shown here. Equal entries are not always repeated.", "data": [{"sequence": "GRKKKRRQRRRYK [Tat-acpP, Tat peptide conjugated to 10-mer antisense PNA against acpP]", "values": [{"measurement": "reduction in the MIC of the ΔphoP strain compared to wild-type Salmonella", "setting": "[1]; SL1344 ΔphoP versus SL1344 wt", "result": 2, "unit": "fold"}, {"measurement": "MIC in μM, SL1344 ΔphoP", "setting": "[1]", "result": 2.5, "unit": "µM"}]}, {"sequence": "KFFKFFKFFK [KFF-acpP, KFF peptide conjugated to 10-mer antisense PNA against the translational start site of acpP]", "values": [{"measurement": "MIC in μM, SL1344 ΔphoP", "setting": "[1]", "result": "did not alter the MIC and 1.25 μM"}, {"measurement": "logFC fabF", "setting": "[2]", "result": -1.1555}]}, {"sequence": "RXRRXRRXRRXRXB [RXR-acpP, RXR peptide conjugated to 10-mer antisense PNA against acpP]", "values": [{"measurement": "MIC in μM, SL1344 ΔphoP", "setting": "[1]", "result": "1.25 to 2.5", "unit": "µM"}]}]}
